{"source": "patent US11731977B2", "about": "“SGC stimulators” (Cyclerion Therapeutics, Inc., priority 2016, dated 2023)", "key": {"[1]": {"tested_on": "rats", "experiment": "Acute and tonic pain: formalin test, score (Example 13)", "assay_type": "in vivo, rat", "details": "Compound I-1 p.o. 10 mg/kg, 120 minutes after treatment", "protocol": "Formalin Test. 2.5% formalin solution was injected by subplantar route into the right hind paw. Scoring of pain behavior was performed in rats for 36 minutes every 3 minutes according to the following scores:\n0=normal behavior of the injected hind limb to support the body\n1=slight touching of the injected paw on the floor to lightly support or not support the body\n2=total withdrawal of the injected paw\n3=licking, biting or shaking of the injected paw"}, "[2]": {"tested_on": "R6/2 mice hippocampal slices", "experiment": "Synaptic transmission and plasticity (LTP) in R6/2 mice hippocampal slices (Example 8)", "set-up": "species or system mouse", "details": "R6/2 slices", "protocol": "Improvements in synaptic transmission and plasticity, as measured by long term potentiation (LTP), is believed to indicate the potential of a compound to enhance memory. LTP is an electrophysiological phenomena that is commonly referred to as the a cellular phenomenon driving learning and memory.\nPreparation of acute mice hippocampal slices. Experiments were carried out with 11 to 12 week-old R6/2 and WT mice provided by the Jackson Laboratory (USA). Hippocampal slices (350 μm thickness) were cut with a Macllwain tissue chopper in an ice-cold oxygenated sucrose solution (Saccharose 250, Glucose 11, NaHCO3 26, KCl 2, NaH2PO4 1.2, MgCl2 7, and CaCl2 0.5 in mM). The slices were incubated 1 hour at room temperature in ACSF of the following composition: Glucose 11, NaHCO3 25, NaCl 126, KCl 3.5, NaH2PO4 1.2, MgCl2 1.3, and CaCl2 2 in mM. Then, the slices were let to recover for at least 1 h.\nSlice perfusion and temperature control. During the experiments, the slices were continuously perfused with the ACSF (bubbled with 95% O2-5% CO2) at the rate of 3 mL/min with a peristaltic pump (MEA chamber volume: ˜1 mL). Complete solution exchange in the MEA chamber was achieved 20 s after the switch of solutions. The perfusion liquid was continuously pre-heated at 37° C. just before reaching the MEA chamber with a heated-perfusion cannula (PH01, Multichannel Systems, Reutlingen, Germany). The temperature of the MEA chamber was maintained at 37±0.1° C. with a heating element located in the MEA amplifier headstage.\nInput/Output (I/O)curve: from 100 to 800 μA, by 100 μA steps. The stimulus intensity was then set to a fixed value of 250 μA for the short- and long-term synaptic plasticity measurements.\nShort-term plasticity properties: two pulses with a decreasing inter-stimuli interval (e.g. 300 ms, 200 ms, 100 ms, 50 ms, 25 ms) were applied. Compound application: fEPSP were recorded for 10 minutes in control conditions (to verify the baseline steadiness) followed by a 15-minute exposure to the compound (or 25 minutes in the presence of vehicle only for control slices). A second I/O protocol and paired-pulse protocol were applied, as described previously, in the continuous presence of the compound.\nLong-Term Potentiation (LTP); Following a 10-minute control period (in the presence of the compound or vehicle for control slices), LTP was induced by a 10×TBS. Potentiation of synaptic transmission was then monitored for an additional 60-minute period (in the continuous presence of the compound or vehicle for control slices)."}, "[3]": {"tested_on": "rats", "experiment": "Acute and tonic pain: healthy rats, paw pressure test (Example 13)", "details": "Compound I-1 p.o. 10 mg/kg, 120 minutes after treatment", "method": "Paw Pressure Test. Static mechanical hyperalgesia is measured. This test requires the application of an increasing pressure on the hind paws between a flat surface and a blunt pointer. To evaluate the analgesic action of a compound, one hind paw of the animal was inflamed by an injection or injured by ligation, while the other hind paw was not injured or inflamed. The apparatus exerted a steadily increasing force on the hind paws. The reaction threshold was determined as the pressure (g) required to elicit paw withdrawal and/or vocalization. The animals were gently handled by the experimenter and static mechanical hyperalgesia were assessed two times for both hind paws.\nTesting: 120 minutes after treatment. N=4/model/test. Results are expressed for each group as a percentage of activity calculated from the mean value of the vehicle-treated animals and compared to naïve animals, control paw, or cut-off value, depending on the test."}, "[4]": {"experiment": "Dog cerebrospinal fluid (CSF) pharmacokinetic properties (Example 5)", "assay_type": "in vivo", "details": "male, beagle, 1 mg/kg PO", "protocol": "Protocol PK in dogs was determined following oral dosing. A group of 4 male beagle dogs were used and the dogs were dosed with 1 mg/kg of a compound formulated as a suspension in 1% HPMC E5, 0.2% Tween 80, and 0.5% MC in water. PO doses were administered by oral gavage in a gelatin capsule and delivered to the stomach using a gavage tube. Following oral dosage administration, the gavage tube was flushed with approximately 10 mL of water to ensure complete delivery of the full dose.\nPlasma and CSF samples were collected as follows: samples of CSF and blood were collected at 1, 2, 4 and 8 hours post PO dosing. CSF samples (0.05 mL) were collected from the lumbosacral region (L4/5) via direct needle puncture at the appropriate time points. Blood samples (0.25 mL) were collected via cephalic vein. These samples were kept on ice until processed for plasma. Blood samples were centrifuged at 3200 rpm for 5 minutes at approximately 5° C. within 1 hour of collection. Plasma was directly transferred to a 96-well plate tube (0.125 mL). Plug caps were placed on the tubes and the tubes frozen at approximately −70° C. and stored until analysis. Plasma was collected and analyzed for the presence of a compound.\nQuantitation of Compounds. The compound of the invention and the internal standard were extracted from plasma and CSF by precipitation. Samples were analyzed using liquid chromatography (LC) with tandem mass spectrometric detection (MS/MS) using electrospray ionization. The standard curve range was from 1 to 1000 ng/mL. Results of the compounds described herein in this assay are illustrated in Tables 5a and 5b below (1 mg/kg dose).\nKp,uu is defined as the concentration ratio of unbound drug in CSF to unbound drug in plasma. Unbound drug in plasma (or free plasma concentration) is calculated by multiplying the total plasma concentration by the unbound fraction as determined by plasma protein binding. The CSF concentration is then divided by the free plasma concentration to determine the Kp,uu. (See e.g., Di et al., J. Med. Chem 56, 2-12 (2013))"}}}
{"compound": "Fc1ccccc1Cc1nc(-c2nc(C(F)(F)F)n[nH]2)cn2ccnc12", "note": "[Compound I-1, 8-(2-fluorobenzyl)-6-(3-(trifluoromethyl)-1H-1,2,4-triazol-5-yl)imidazo[1,2-a]pyrazine]", "values": [{"measurement": "% of activity vs. vehicle", "setting": "[1]; Formalin test - score (early phase)", "value": 57, "unit": "%"}, {"measurement": "% of activity vs. vehicle", "setting": "[1]; Formalin test - score (late phase)", "value": 32, "unit": "%"}, {"measurement": "potentiation of the evoked-response amplitudes, stabilized level", "setting": "[2]; 7 nM", "value": "around 25%"}, {"measurement": "rescue of LTP impairment", "setting": "[2]; 7 nM", "value": "failed to significantly rescue"}, {"measurement": "fEPSP increase at endpoint after HFS (LTP)", "setting": "[2]; 7 nM (R6/2 control 16±3%, WT 46±5%)", "value": "26±6", "unit": "%"}, {"measurement": "effect on short-term plasticity properties (paired pulses, 25 ms to 300 ms ISI)", "setting": "[2]; 7 nM, 46 nM or 308 nM, exception 308 nM at 50 ms ISI", "value": "None of the evaluated Compound I-1 concentrations (7 nM, 46 nM or 308 nM) displayed a significant effect"}, {"measurement": "effect on overall I/O characteristics", "setting": "[2]; 7 nM, 46 nM, 308 nM", "value": "none of the 3 concentrations displayed a significant effect"}, {"measurement": "potentiation of the evoked-response amplitudes, stabilized level", "setting": "[2]; 46 nM", "value": "around 45%"}, {"measurement": "fEPSP increase at endpoint after HFS (LTP)", "setting": "[2]; 46 nM (R6/2 control 16±3%, WT 46±5%)", "value": "44±12", "unit": "%"}, {"measurement": "rescue of LTP impairment", "setting": "[2]; 46 nM and 308 nM", "value": "completely restored the LTP deficit"}, {"measurement": "potentiation of the evoked-response amplitudes, stabilized level", "setting": "[2]; 308 nM", "value": "around 35%"}, {"measurement": "fEPSP increase at endpoint after HFS (LTP)", "setting": "[2]; 308 nM (R6/2 control 16±3%, WT 46±5%)", "value": "37±9", "unit": "%"}, {"measurement": "% of activity vs. vehicle", "setting": "[3]", "value": "−6", "unit": "%"}, {"measurement": "Kp uu at 1 h", "setting": "[4]; CSF / unbound plasma, @ 1 h", "value": 0.7}, {"measurement": "Kp uu at 2 h", "setting": "[4]; CSF / unbound plasma, @ 2 h", "value": 0.7}, {"measurement": "Kp uu at 4 h", "setting": "[4]; CSF / unbound plasma, @ 4 h", "value": 0.7}, {"measurement": "Kp uu at 8 h", "setting": "[4]; CSF / unbound plasma, @ 8 h", "value": 0.4}, {"measurement": "concentration at 1 h", "setting": "[4]; CSF, @ 1 h, read-out: CSF Conc.", "value": 34, "unit": "nM"}, {"measurement": "concentration at 2 h", "setting": "[4]; CSF, @ 2 h, read-out: CSF Conc.", "value": 34, "unit": "nM"}, {"measurement": "concentration at 4 h", "setting": "[4]; CSF, @ 4 h, read-out: CSF Conc.", "value": 19, "unit": "nM"}, {"measurement": "concentration at 8 h", "setting": "[4]; CSF, @ 8 h, read-out: CSF Conc.", "value": 2.4, "unit": "nM"}]}
